Experiment [1] concerns the target PtGSTU19Y160A (Populus trichocarpa, UniProt B9HKX9, Y160A). The experiment in a line: GSH-conjugation activity toward model substrates, variant. It counts as biochemical. The note with it: PtGSTU19 Y160A, fixed saturating GSH, mean ± S.D.; for k cat: n = 3; for Km: n = 3, read-out: apparent KM.
Procedure: (§2) Peroxidase activity toward hydroperoxides was measured using an NADPH coupled spectrophotometric assay ([Pégeot et al., 2014]).
(§3) The measured velocities were corrected by subtracting the rate of the spontaneous nonenzymatic reaction, and three independent experiments were performed at each substrate concentration.
Experiment [2] addresses PtGSTU19Y160C (Populus trichocarpa, UniProt B9HKX9, Y160C). Described as above. It counts as biochemical. The note with it: PtGSTU19 Y160C, fixed saturating GSH, mean ± S.D.; for k cat: n = 3; for Km: n = 3, read-out: apparent KM.
Procedure: as §2, §3
The target of experiment [3] is PtGSTU19Y160F (Populus trichocarpa, UniProt B9HKX9, Y160F). The experiment is described as above. It counts as biochemical. The note with it: for k cat / Km: PtGSTU19 Y160F, GSH-conjugation, fixed saturating GSH, mean ± S.D., n = 3; for Km: read-out: apparent KM.
Sequence of PtGSTU19Y160F (B9HKX9 2-219 Y160F): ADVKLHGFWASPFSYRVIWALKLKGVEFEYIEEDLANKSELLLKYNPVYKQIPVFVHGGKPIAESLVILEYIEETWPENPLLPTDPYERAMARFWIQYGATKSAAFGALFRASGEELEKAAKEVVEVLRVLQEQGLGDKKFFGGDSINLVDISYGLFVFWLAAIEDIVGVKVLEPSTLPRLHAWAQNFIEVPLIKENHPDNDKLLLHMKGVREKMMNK
Procedure: as §2, §3
The target in experiment [4] is PtGSTU20C160Y (Populus trichocarpa, UniProt D2X9R3, C160Y). The description is as above. The experiment is classed as biochemical. The settings on record: PtGSTU19 C160Y in Table S4, fixed saturating GSH, mean ± S.D.; for k cat: n = 3; for Km: n = 3, read-out: apparent KM.
Sequence of PtGSTU20C160Y (D2X9R3 2-219 C160Y): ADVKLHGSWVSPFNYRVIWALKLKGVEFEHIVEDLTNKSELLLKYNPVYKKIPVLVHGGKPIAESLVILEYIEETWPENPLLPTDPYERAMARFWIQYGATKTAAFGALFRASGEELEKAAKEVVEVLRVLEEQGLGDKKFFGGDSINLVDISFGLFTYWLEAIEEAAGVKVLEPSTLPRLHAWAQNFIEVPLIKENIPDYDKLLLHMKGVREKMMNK
Procedure: as §2, §3
In experiment [5] the target is T1, PtGSTU19 (Populus trichocarpa, UniProt B9HKX9). Nature of the experiment: GSH-conjugation activity toward model substrates. The note with it: for Catalytic efficiency: PtGSTU19; for k cat / k cat/K m: PtGSTU19, 25°C, fixed 1 mM GSH (0.7 mM with HNE), mean ± S.D., n = 3.
T1 sequence (B9HKX9 entry or part of it): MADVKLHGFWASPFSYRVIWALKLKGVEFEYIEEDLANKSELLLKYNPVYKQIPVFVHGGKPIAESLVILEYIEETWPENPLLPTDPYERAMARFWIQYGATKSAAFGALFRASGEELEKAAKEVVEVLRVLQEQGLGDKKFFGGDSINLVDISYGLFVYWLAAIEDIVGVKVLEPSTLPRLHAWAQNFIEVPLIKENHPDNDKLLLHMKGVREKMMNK
Experiment [6] concerns the target T2, PtGSTU20 (Populus trichocarpa, UniProt D2X9R3). Nature of the experiment: GSH-conjugation activity toward model substrates.
Experiment [7] has as its target T1, PtGSTU19. Nature of the experiment: Competition (inhibition) assay of GSH-conjugation with PITC as substrate. The experiment is classed as biochemical.
Procedure: (§4) The measured velocities were corrected by subtracting the rate of the spontaneous nonenzymatic reaction, and three independent experiments were performed at each substrate concentration. The kinetic parameters (k cat and apparent K m) and the inhibition constants (K i) were, respectively, obtained by fitting the data to the nonlinear regression Michaelis–Menten model (kinetic assays) and to the mixed inhibition model (inhibition assays) in GraphPad Prism 8 software ([Copeland, 2013]).
The target of experiment [8] is T2, PtGSTU20. The description is as above. The experiment is classed as biochemical.
Procedure: as §4
Experiment [9] has as its target T1, PtGSTU19. The experiment in a line: Thermal shift assay (SYPRO orange). It counts as binding. The protocol: (§1) Assays were performed in a mixture (final volume of 25 µL) containing 30 mM Tris-HCl pH 8.0, 100 µM of chemical compounds (diluted in 8% DMSO) originating from a chemical library (Supplementary Tables S2, S3), 20 µM of PtGSTU19 or 20, and 5X SYPRO orange. […] The denaturation temperature, which corresponds to the temperature at which 50% of the total fluorescence is measured, was determined by the nonlinear regression Boltzmann sigmoidal model in GraphPad Prism 8 software for data obtained in the presence of potential ligands. This temperature was compared with a reference assay in which organic compounds were replaced by an equivalent DMSO concentration.

Experiment [10] deals with T2, PtGSTU20. The experiment in a line: Thermal shift assay (SYPRO orange). The experiment is classed as binding. The protocol:
as §1

Experiment [11] addresses T1, PtGSTU19. Nature of the experiment: Peroxidase activity, NADPH coupled spectrophotometric assay. The experiment is classed as biochemical. The settings on record: enzyme concentration increased up to 10 µM.
Procedure: as §2, §4
Experiment [12] concerns the target T2, PtGSTU20. The description is as above. The experiment is classed as biochemical. The note with it: enzyme concentration increased up to 10 µM.
Procedure: as §2, §4
The mark [13] stands for this setting: 25°C, fixed 1 mM GSH (0.7 mM with HNE), mean ± S.D., n = 3.
The mark [14] stands for this setting: read-out: ΔTd (denaturation temperature difference), PtGSTU19 20 µM, compound 100 µM, vs DMSO reference, flavonoid set (Table S3, Figure 4).
Setting [15] is: read-out: ΔTd (denaturation temperature difference), PtGSTU19 apo form 20 µM, compound 100 µM, vs DMSO reference, first chemical library screen (Table S2, Figure S9).
[16] abbreviates: read-out: ΔTd (denaturation temperature difference), PtGSTU20 20 µM, compound 100 µM, vs DMSO reference, flavonoid set (Table S3, Figure 4).
Where [17] appears, read: read-out: ΔTd (denaturation temperature difference), PtGSTU20 apo form 20 µM, compound 100 µM, vs DMSO reference, first chemical library screen (Table S2, Figure S9).
Where [18] appears, read: read-out: ΔTd (denaturation temperature difference).
The mark [19] stands for this setting: PtGSTU19 apo form 20 µM, compound 100 µM, vs DMSO reference, first chemical library screen (Table S2, Figure S9).
The mark [20] stands for this setting: PtGSTU20 apo form 20 µM, compound 100 µM, vs DMSO reference, first chemical library screen (Table S2, Figure S9).
Setting [21] is: PtGSTU19 20 µM, compound 100 µM, vs DMSO reference, flavonoid set (Table S3, Figure 4), read-out: ΔTd (denaturation temperature difference).
[22] abbreviates: PtGSTU20 20 µM, compound 100 µM, vs DMSO reference, flavonoid set (Table S3, Figure 4), read-out: ΔTd (denaturation temperature difference).

Like-named read-outs stand apart in the source and are kept apart here.

Sequence of PtGSTU19Y160C (B9HKX9 2-219 Y160C): as the sequence (B9HKX9 2-219 Y160F) above, with F159C counted along it
Sequence of PtGSTU19Y160A (B9HKX9 2-219 Y160A): as the sequence (B9HKX9 2-219 Y160F) above, with F159A counted along it
T2 sequence (D2X9R3 entry or part of it): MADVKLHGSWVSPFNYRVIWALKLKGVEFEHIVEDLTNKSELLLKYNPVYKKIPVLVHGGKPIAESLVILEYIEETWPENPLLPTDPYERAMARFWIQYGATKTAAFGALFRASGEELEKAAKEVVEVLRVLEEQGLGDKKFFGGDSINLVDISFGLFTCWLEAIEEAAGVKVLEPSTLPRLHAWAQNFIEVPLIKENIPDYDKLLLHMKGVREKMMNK

Turning to `S=C=NCc1ccccc1` [BITC, benzyl-isothiocyanate], the k cat came out at 6.5 ± 0.2 s⁻¹ in experiment [1]; 6.7 ± 0.1 s⁻¹ in experiment [2]; 8.3 ± 0.2 s⁻¹ in experiment [3]; 4.9 ± 0.1 s⁻¹ in [4]; 7.0 ± 0.1 s⁻¹ in experiment [5]; 10.4 ± 0.3 s⁻¹ in experiment [6] (setting [13]). The Km in experiment [1] stood at 30.6 ± 4.5 µM; in [2], 54.1 ± 3.3 µM; in [3], 36.3 ± 3.3 µM; in experiment [4] it was 71.4 ± 9.6 µM. In [5], this compound had a Catalytic efficiency of 132200 M⁻¹ s⁻¹.
As to `O=c1cc(-c2ccccc2)oc2cc(O)c(O)c(O)c12` [Baicalein], the figures for the Ki in experiment [7] and in experiment [8] were 35.2 ± 2.8 µM and 7.1 ± 0.6 µM, respectively. Moreover, the ΔTm at 100 µM was 0.73 ± 0.2 °C in experiment [9] (setting [14]), more than 4 °C in experiment [9] (setting [15]), 3.4 °C in experiment [10] (setting [16]) and more than 4 °C in experiment [10] (setting [17]).
With `O=[N+]([O-])c1ccc(Cl)c([N+](=O)[O-])c1` [CDNB], the k cat in experiment [1] was 7.2 ± 0.9 s⁻¹; in experiment [2], 14.0 ± 1.2 s⁻¹; in [3], 17.3 ± 1.0 s⁻¹; in [4], 0.59 ± 0.03 s⁻¹; in [5] it was 28.8 ± 2.2 s⁻¹; in [6] (setting [13]), 0.59 ± 0.03 s⁻¹. The Km in experiment [1] came out at 7040 ± 1380 µM; in experiment [2], 4160 ± 620 µM; in [3], 3670 ± 390 µM; in experiment [4], 2250 ± 229 µM; in experiment [5] (read-out: apparent K m, PtGSTU19, 25°C, fixed 1 mM GSH (0.7 mM with HNE), mean ± S.D., n = 3), 3390 ± 502 µM; in experiment [6] (read-out: apparent K m, 25°C, fixed 1 mM GSH (0.7 mM with HNE), mean ± S.D., n = 3) it was 1780 ± 193 µM. Moreover, the “k cat/K m” value is given as 8.9 ± 0.8 10^3 M^-1s^-1 in experiment [5] and 0.33 ± 0.01 10^3 M^-1s^-1 in experiment [6] (setting [13]). Further, the “Catalytic efficiency of PtGSTU19 relative to PtGSTU20” value in [5] (PtGSTU19 higher than PtGSTU20) is 30 times. For the same compound, the Catalytic efficiency in experiment [6] came out at 300 M⁻¹ s⁻¹.
As to `O=c1cc(-c2ccccc2)oc2cc(O)cc(O)c12` [Chrysin], the ΔTm at 100 µM in [9] (setting [18]) was -0.05 ± 0.07 °C; in [10] (setting [18]), 2.07 °C.
In the case of `N[C@@H](CCC(=O)N[C@@H](CS)C(=O)NCC(=O)O)C(=O)O` [GSH, glutathione], in experiment [9] (setting [19]), the “ΔTd (denaturation temperature difference)” value is “little or no change”. Moreover, the “ΔTd (denaturation temperature difference)” value in experiment [10] (setting [20]) was “little or no change”. In experiment [3], the “apparent affinity for glutathione, reduced by a factor” value was 4 and the “variation of apparent affinity for glutathione” value is “no variation”.
As for `O=c1c(O)c(-c2ccccc2)oc2cc(O)cc(O)c12` [Galangin], the results for the Ki in experiment [7] (read-out: K i) and in experiment [8] (read-out: K i) were 157 ± 28.7 µM and 43.8 ± 0.6 µM, respectively. In addition, the ΔTm at 100 µM in [9] (setting [21]) came out at 1.59 ± 0.29 °C; in [10] (setting [22]), 7.42 °C. Moreover, the “ΔTd (denaturation temperature difference)” value in [10] (PtGSTU20 20 µM, compound 100 µM, vs DMSO reference, flavonoid set (Table S3, Figure 4), 100 µM) was found to be 5.89 ± 0.64 °C.
For `OO` [H2O2, hydrogen peroxide], the “Peroxidase activity (active on the peroxide)” value in experiment [11] and in experiment [12] was “not” throughout.
`CCCCCC(O)C=CC=O` (centres unmarked) [HNE, 4-hydroxy-2-nonenal]: in experiment [5], the Catalytic efficiency turned out to be 2000 M⁻¹ s⁻¹.
As for `O=c1c(O)c(-c2ccc(O)cc2O)oc2cc(O)cc(O)c12` [Morin], the Ki in experiment [7] came out at 72.9 ± 5.3 µM; in experiment [8] it was 16 ± 0.9 µM. Also, the ΔTm at 100 µM is 0.37 ± 0.16 °C in [9] (setting [14]), more than 4 °C in experiment [9] (setting [15]), 4.36 °C in experiment [10] (setting [16]) and more than 4 °C in experiment [10] (setting [17]).
As for `S=C=NCCc1ccccc1` [PITC, phenethyl-isothiocyanate], the k cat in experiment [1] turned out to be 2.3 ± 0.03 s⁻¹; in experiment [2], 3.05 ± 0.05 s⁻¹; in experiment [3] it was 3.9 ± 0.07 s⁻¹; in experiment [4], 2.03 ± 0.08 s⁻¹; in experiment [5], 3.8 ± 0.1 s⁻¹; in [6] (setting [13]) it was 5.1 ± 0.1 s⁻¹. Moreover, the Km in [1] stood at 49.2 ± 2.6 µM; in experiment [2] it was 40.3 ± 3 µM; in experiment [3], 31.1 ± 2.5 µM; in experiment [4], 58.3 ± 9.2 µM. The compound also registered a Catalytic efficiency in experiment [6] of 88900 M⁻¹ s⁻¹.
Take `CCCC(=O)Oc1ccc([N+](=O)[O-])cc1` [PNP-butyrate, 4-nitrophenyl-butyrate]: in experiment [5], the Catalytic efficiency is 100 M⁻¹ s⁻¹, the k cat is 0.040 ± 0.001 s⁻¹ and the “k cat/K m” value is 0.100 ± 0.002 10^3 M^-1s^-1. In [6], the Catalytic efficiency was 100 M⁻¹ s⁻¹. The k cat in experiment [6] (setting [13]) stood at 0.020 ± 0.001 s⁻¹.
In the case of `O=C1C[C@@H](c2ccccc2)Oc2cc(O)cc(O)c21` [Pinocembrin], the figures for the Ki in [7] (read-out: K i) and in experiment [8] (read-out: K i) were 152 ± 13.5 µM and 61.2 ± 10.5 µM, respectively. For the same compound, the ΔTm at 100 µM in experiment [9] (setting [21]) is -0.01 ± 0.12 °C; in experiment [10] (setting [22]) it was 1.68 °C.
For the compound `O=c1cc(-c2ccc(O)cc2)oc2cc(O)cc(O)c12` [apigenin], in experiment [10] (setting [18]), the ΔTm at 100 µM was 1.41 °C.
Take `O=C(/C=C/c1ccc(O)c(O)c1)c1ccc(O)cc1O` [butein]: the ΔTm at 100 µM in experiment [10] (setting [22]) amounted to 2.32 °C.
As to `O=C(CCc1ccc(O)cc1)c1c(O)cc(O)cc1O` [phloretin], the ΔTm at 100 µM in [10] (setting [22]) worked out at 3.11 °C.
With `O=c1c(O)c(-c2ccc(O)c(O)c2)oc2cc(O)cc(O)c12` [quercetin], the ΔTm at 100 µM in experiment [9] (setting [18]) and in experiment [10] (setting [18]) was more than 4 °C in each case.
For `CC(C)(C)OO` [t-BOOH, tert-butyl hydroperoxide], the “Peroxidase activity (active on the peroxide)” value in experiment [11] and in [12] was “not” throughout.
As to `COc1c(O)cc(O)c2c(=O)cc(-c3ccccc3)oc12` [wogonin], in experiment [10] (setting [16]), the ΔTm at 100 µM worked out at 5.17 °C.
As for “glutathionyl-phenylacetophenone [GS-PAP]”, the Ki turned out to be 2.3 ± 0.8 µM in experiment [7] (PtGSTU19, GSH-conjugating reaction with PITC as substrate, mixed model inhibition, ND = no inhibition was detected, read-out: K i) and 5.1 ± 2.1 µM in experiment [8] (PtGSTU20, GSH-conjugating reaction with PITC as substrate, mixed model inhibition, ND = no inhibition was detected, read-out: K i). For the same compound, the “ΔTd (denaturation temperature difference)” value in [9] (PtGSTU19 20 µM, compound 100 µM, vs DMSO reference, flavonoid set (Table S3, Figure 4)) is 4.99 ± 0.28 °C; in experiment [9] (setting [19]), “+8.39 °C”; in [10] (PtGSTU20 20 µM, compound 100 µM, vs DMSO reference, flavonoid set (Table S3, Figure 4)) it was 6.48 ± 0.17 °C; in [10] (setting [20]), “+9.62 °C”.
oxidized glutathione [GSSG]: the “ΔTd (denaturation temperature difference)” value in [9] (setting [19]) and in experiment [10] (setting [20]) was “little or no change” in each case.

Values taken from paper PMC9412104, “Biochemical and Structural Insights on the Poplar Tau Glutathione Transferase GSTU19 and 20 Paralogs Binding Flavonoids” (Frontiers in Molecular Biosciences, 2022).
